Measured values as given in publication PMC11855827, “High-Throughput Screening of Five Compound Libraries for Anthelmintic Activity and Toxicity Leads to the Discovery of Two Flavonoid Compounds” (International Journal of Molecular Sciences, 2025).
Where two headings read alike, the source gives them in different places.

Test system: C. elegans
Assay: microbe, parasite or virus in culture
Conditions: Caenorhabditis elegans
[1] = 0 h, read-out: Percentage of motility inhibition 0 h, Table S2, C. elegans SS assay, 110 μM, 0 h, averages of 4 data points
[2] = 24 h, read-out: Percentage of motility inhibition 24 h, Table S2, C. elegans SS assay, 110 μM, 24 h, averages of 4 data points
[3] = 0 h, read-out: Percentage of motility inhibition 0 h
[4] = 24 h, read-out: Percentage of motility inhibition 24 h

With `CC(C)=CCC[C@](C)(O[C@@H]1O[C@H](CO[C@@H]2OC[C@H](O)[C@H](O)[C@H]2O)[C@@H](O)[C@H](O)[C@H]1O)[C@H]1CC[C@]2(C)[C@@H]1[C@H](O)C[C@@H]1[C@@]3(C)CC[C@H](O)C(C)(C)[C@@H]3[C@@H](O)C[C@]12C` [Ginsenoside F3] the inhibition at 110 µM [1] was 2% and the inhibition at 110 µM [2] was 34%.

`Nc1ccn([C@H]2CC[C@@H](CO)O2)c(=O)n1` [Zalcitabine] gave an inhibition at 110 µM [1] of 19% and an inhibition at 110 µM [2] of 20%.

Compound `O=C1c2c(O)cc(O)cc2O[C@H](c2cc(O)c(O)c(O)c2)[C@H]1O` [Dihydromyricetin] has an inhibition at 110 µM [1] of 33% and an inhibition at 110 µM [2] of 16%.

`C1CNCCN1` [Piperazine] was tested, and the inhibition at 110 µM [1] was 3% and the inhibition at 110 µM [2] was 0%.

For `COc1cc(NS(=O)(=O)c2ccc(N)cc2)ncn1` [Sulfamonomethoxine], the inhibition at 110 µM [1] was 6% and the inhibition at 110 µM [2] was 1%.

With `CC(C)(C)C(O)(CCc1ccc(Cl)cc1)Cn1cncn1` (stereo not shown) [Tebuconazole] the inhibition at 110 µM [1] was 32% and the inhibition at 110 µM [2] was 1%.

`CN1Cc2c(ccc3c2OCO3)-c2ccc3cc4c(cc3c21)OCO4` [Dihydrosanguinarine] was tested, and the inhibition at 110 µM [1] was 0% and the inhibition at 110 µM [2] was 0%.

`CC(C)(C)[C@H]1CC[C@H](CC2=C(O)C(=O)c3ccccc3C2=O)CC1` [Buparvaquone] was tested, and the inhibition at 110 µM [1] was 6% and the inhibition at 110 µM [2] was 12%.

`CC/C=C\C/C=C\C/C=C\C/C=C\C/C=C\CCCC(=O)O` [Eicosapentaenoic Acid] was tested, and the inhibition at 110 µM [1] was 0% and the inhibition at 110 µM [2] was 4%.

Compound `O=c1cc(-c2ccc(O)c(-c3c(O)cc(O)c4c(=O)cc(-c5ccc(O)cc5)oc34)c2)oc2cc(O)cc(O)c12` [Amentoflavone] has an inhibition at 110 µM [1] of 0% and an inhibition at 110 µM [2] of 0%.

Compound `CC(=O)O[C@]1(C(C)=O)CC[C@H]2[C@@H]3C[C@H](C)C4=CC(=O)CC[C@]4(C)[C@H]3CC[C@@]21C` [Medroxyprogesterone acetate] has an inhibition at 110 µM [1] of 11% and an inhibition at 110 µM [2] of 6%.

In the case of `COc1cc2c(cc1OC)[C@H](C)NCC2` [Salsolidine], the inhibition at 110 µM [1] is reported as 0% and the inhibition at 110 µM [2] is reported as 0%.

`COc1ccc(-c2cc(=O)c3c(O)c(OC)c(O)cc3o2)cc1` [Pectolinarigenin] gave an inhibition at 110 µM [1] of 4% and an inhibition at 110 µM [2] of 0%.

In the case of `O=c1[nH]cnc2c1ncn2[C@@H]1O[C@H](CO)[C@@H](O)[C@H]1O` [Inosine], the inhibition at 110 µM [1] is reported as 34% and the inhibition at 110 µM [2] is reported as 10%.

Work on `C/C=C(/C)C(=O)O[C@H]1[C@H](O)[C@]2(COC(C)=O)[C@H](O)C[C@]3(C)C(=CC[C@@H]4[C@@]5(C)CC[C@H](O[C@@H]6O[C@H](C(=O)O)[C@@H](O[C@@H]7O[C@H](CO)[C@@H](O)[C@H](O)[C@H]7O)[C@H](O)[C@H]6O[C@@H]6O[C@H](CO)[C@@H](O)[C@H](O)[C@H]6O)[C@](C)(CO)[C@@H]5CC[C@]43C)[C@@H]2CC1(C)C` [Isoescin IB] yielded an inhibition at 110 µM [1] of 9% and an inhibition at 110 µM [2] of 0%.

Compound `CC1(C)CC[C@]2(C(=O)O)CC[C@]3(C)C(=CC[C@@H]4[C@@]5(C)CCC(=O)C(C)(C)[C@@H]5CC[C@]43C)[C@@H]2C1` [Oleanonic acid] has an inhibition at 110 µM [3] of 15%.

With `COc1ccc(-c2cc(=O)c3c(O)c(OC)c(OC)c(OC)c3o2)cc1` [Gardenin B] the inhibition at 110 µM [1] was 6% and the inhibition at 110 µM [2] was 0%.

In the case of `COc1cc(NS(=O)(=O)c2ccc(N)cc2)nc(OC)n1` [Sulfadimethoxine], the inhibition at 110 µM [1] is reported as 15% and the inhibition at 110 µM [2] is reported as 3%.

`Cc1cc(C)c(Nc2ccnc(Nc3ccc(C#N)cc3)n2)c(C)c1` [Dapivirine] showed an inhibition at 110 µM [1] of 44% and an inhibition at 110 µM [2] of 4%.

With `O=c1cc(-c2ccc(O)c(O)c2)oc2cc(O)cc(O)c12` [Luteolin] the inhibition at 110 µM [1] was 4% and the inhibition at 110 µM [2] was 0%.

In the case of `COC[C@@]12CC[C@H](OC)[C@]34C(C([C@H](OC)[C@H]13)[C@]1(OC(C)=O)[C@H]3[C@@H](OC(=O)c5ccccc5)[C@](O)(C[C@H]34)[C@@H](OC)[C@@H]1O)N(C)C2` [Hypaconitine], the inhibition at 110 µM [1] is reported as 0% and the inhibition at 110 µM [2] is reported as 6%.

`Cc1cncc(C)n1` [2,6‐Dimethylpyrazine] showed an inhibition at 110 µM [1] of 0% and an inhibition at 110 µM [2] of 0%.

`CCCCCCCC/C=C\CCCCCCCC(=O)O` [Oleic acid] showed an inhibition at 110 µM [1] of 0% and an inhibition at 110 µM [2] of 0%.

Compound `COc1ccc2c(c1OC)CN1CCc3cc4c(cc3C1C2)OCO4` (stereo not shown) [Tetrahydroberberine] has an inhibition at 110 µM [1] of 2% and an inhibition at 110 µM [2] of 0%.

In the case of `COc1cc(CNC(=O)CCCCCCC(C)C)ccc1O` [Dihydrocapsaicin], the inhibition at 110 µM [1] is reported as 0% and the inhibition at 110 µM [2] is reported as 7%.

Work on `COc1c(OC)c2nccc3c4ccccc4n(c1=O)c23` [4,5‐Dimethoxycanthin‐6‐one] yielded an inhibition at 110 µM [1] of 0% and an inhibition at 110 µM [2] of 22%.

`COc1ccc(C[C@@H]2c3cc(Oc4cc(C[C@@H]5c6cc(O)c(OC)cc6CCN5C)ccc4O)c(OC)cc3CCN2C)cc1` [Isoliensinine] gave an inhibition at 110 µM [3] of 3% and an inhibition at 110 µM [4] of 17%.

`Cc1c([C@H](C)[C@@H]2NC[C@@H](C)C[C@H]2O)ccc2c1C[C@H]1[C@H]2CC=C2C[C@@H](O)CC[C@@]21C` [Veratramine] was tested, and the inhibition at 110 µM [3] was 9% and the inhibition at 110 µM [4] was 2%.

`O=C(O)CCCCC1CCSS1` (stereo not drawn) [α-Lipoic Acid] gave an inhibition at 110 µM [1] of 9% and an inhibition at 110 µM [2] of 3%.

`CC(=O)Nc1ncc([N+](=O)[O-])s1` [Nithiamide] gave an inhibition at 110 µM [1] of 32% and an inhibition at 110 µM [2] of 7%.

Work on `COc1ccc2c(c1OC)CN(C)c1c-2ccc2cc3c(cc12)OCO3` [Dihydrochelerythrine] yielded an inhibition at 110 µM [1] of 0% and an inhibition at 110 µM [2] of 7%.

With `CC[C@H]1OC(=O)[C@H](C)[C@@H](O[C@H]2C[C@@](C)(OC)[C@@H](O)[C@H](C)O2)[C@H](C)[C@@H](O[C@@H]2O[C@H](C)C[C@H](N(C)C)[C@H]2O)[C@](C)(O)C[C@@H](C)CN(C)[C@H](C)[C@@H](O)[C@]1(C)O` [Azithromycin] the inhibition at 110 µM [1] was 23% and the inhibition at 110 µM [2] was 37%.

`C=C[C@H]1C[N@@]2CC[C@H]1C[C@@H]2[C@@H](O)c1ccnc2ccc(OC)cc12` [Quinidine] showed an inhibition at 110 µM [1] of 23% and an inhibition at 110 µM [2] of 3%.

Work on `COc1cnc(NS(=O)(=O)c2ccc(N)cc2)nc1` [Sulfameter] yielded an inhibition at 110 µM [1] of 25% and an inhibition at 110 µM [2] of 8%.

Work on `O=c1cc(-c2ccccc2)oc2cc(O)cc(O)c12` [Chrysin] yielded an inhibition at 110 µM [1] of 15% and an inhibition at 110 µM [2] of 0%.

`O=c1ccc2cc3ccoc3cc2o1` [Psoralen] showed an inhibition at 110 µM [3] of 14% and an inhibition at 110 µM [4] of 14%.

For `C=C(CC[C@@H](C(=O)O)[C@H]1[C@H](O)C[C@@]2(C)C3=CC[C@H]4C(C)(C)[C@@H](O)CC[C@]4(C)C3=CC[C@]12C)C(C)C` [Dehydrotumulosic acid], the inhibition at 110 µM [1] was 11% and the inhibition at 110 µM [2] was 21%.

`CC[C@@]1(O)C(=O)OCc2c1cc1n(c2=O)Cc2cc3c([N+](=O)[O-])cccc3nc2-1` [Rubitecan] was tested, and the inhibition at 110 µM [1] was 5% and the inhibition at 110 µM [2] was 0%.

Compound `OC(Cn1cncn1)(Cn1cncn1)c1ccc(F)cc1F` [Fluconazole] has an inhibition at 110 µM [1] of 7% and an inhibition at 110 µM [2] of 12%.

Work on `C[C@@H]1O[C@@H](O[C@H]2[C@H](O[C@H]3CO[C@@H](O[C@H]4CC[C@]5(C)[C@H]6CC[C@]78OC[C@@]9(CC[C@](C)(C=O)C[C@H]97)[C@H](O)C[C@@]8(C)[C@]6(C)CC[C@H]5C4(C)C)[C@H](O[C@@H]4O[C@H](CO)[C@@H](O)[C@H](O)[C@H]4O)[C@H]3O)O[C@H](CO)[C@@H](O)[C@@H]2O)[C@H](O)[C@H](O)[C@H]1O` [Ardisiacrispin B] yielded an inhibition at 110 µM [1] of 16% and an inhibition at 110 µM [2] of 0%.
